The numbers were not newly measured in patent publication EP0086705A1, “Aqueous solution of ursodeoxycholic acid for therapeutic uses, process for its preparation and its utilization for the treatment of cholelithiasis” (S.A. PANMEDICA Société dite:, priority 1982, dated 1983), which cites them from elsewhere.

Molecules are shown by their SMILES.

For this series the following is noted: 37"C.

For `C[C@H](CCC(=O)O)[C@H]1CC[C@H]2[C@@H]3[C@H](O)C[C@@H]4C[C@H](O)CC[C@]4(C)[C@H]3CC[C@]12C` [acide chénodésoxycholique], the “pH de précipitation de la solution” value is reported as 7,0.
